Earlier results, collected in US12397068B2, “Structural design of a cranial nerve degeneration contrast agent precursors” (INSTITUTE OF NUCLEAR ENERGY RESEARCH, ATOMIC ENERGY …, priority 2022, dated 2025).

Experiments:
[1] = in words only; background statement
[2] = system: α-synuclein relative to Aβ and Tau proteins; conditions: in vitro; in words only; background statement
α-synuclein fibrils = α-synuclein fibrils (Homo sapiens, UniProt P37840); conditions: in words only; background statement

Row | SMILES | in vitro stability [1] | specificity for α-synuclein relative to β-amyloid (Aβ) and Tau [2] | affinity for α-synuclein (α-synuclein fibrils)
1 | O=[N+]([O-])c1ccc2c(c1)Sc1cc(OCCF)ccc1N2 [SIL26] | low in vitro stability | reasonable degree in vitro specificity | 
2 | O=[N+]([O-])c1ccc2c(c1)Sc1cc(OC/C=C/[125I])ccc1N2 [SIL23] | low in vitro stability | reasonable degree in vitro specificity | 
3 | COc1ccc2c(c1)Sc1cc([N+](=O)[O-])ccc1N2 [SIL5] | low in vitro stability | reasonable degree in vitro specificity | 
4 | O=C1Nc2ccccc2C1=Cc1ccccc1 |  | low specificity | 
5 | CC[n+]1ccc(/C=C/C=C/c2ccc(N(C)C)cc2)c2ccccc21.[O-][Cl+3]([O-])([O-])[O-] [LDS 798] | low in vitro stability | reasonable degree in vitro specificity | moderate affinity
6 | CN(C)c1ccc(/C=C/C=C/C2=[N+](C)C3=C(CCCC3)C2(C)C)cc1 [LDS 730] | low in vitro stability | reasonable degree in vitro specificity | 
